Reference: publication PMC4324634, “Bioprospecting the American Alligator (Alligator mississippiensis) Host Defense Peptidome” (PLoS ONE, 2015)
Like-named read-outs stand apart in the source and are kept apart here. Where no end group is shown, it is not given here.

How the values were obtained:
[1] = test system: Bacillus cereus (ATCC 11778)
Description: (§1) The third step in the CAMP-discovery process is the evaluation of the antimicrobial effectiveness of the newly identified peptides. The eight synthetic peptides were tested against a panel of Gram-positive and Gram-negative bacteria. These bacteria include Bacillus cereus, Staphylococcus aureus, Escherichia coli, and Pseudomonas aeruginosa. […] When incubated with live metabolically-active cells, the non-fluorescent blue dye resazurin is converted to the highly fluorescent pink resorufin, as a result of reduction by the cells. While bacteria can reduce resazurin via multiple metabolic processes, the rate of conversion and the corresponding increase in fluorescence are directly proportional to the number of living cells in the sample [19–21, 25]. Thus, fluorometric detection of the rate of resazurin conversion to resorufin at 530ex/590em allows for quantification of bacterial survival following exposure to antibacterial compounds, such as CAMPs.
(§2) Escherichia coli (ATCC 25922), Bacillus cereus (ATCC 11778), Pseudomonas aeruginosa (ATCC 9027), and Staphylococcus aureus (ATCC 25923) used in these studies were purchased from the American Type Culture Collection (Manassas, VA). Bacteria were grown following ATCC recommended protocols for each strain and frozen aliquots were prepared in 20% glycerol and stored at -80°C for further use.
(§3) Frozen enumerated bacterial aliquots were thawed on ice and mixed. For each strain, bacteria are diluted to 2 × 10^6 CFU/mL in sterile 10 mM sodium phosphate (pH 7.4) and added in 50 µL aliquots to the wells of a 96-well black microtiter plate (Greiner Bio-One 655201) containing 50 µL volumes of serially diluted CAMP, dissolved in the same phosphate buffer. Control wells contain bacteria with no peptide. The microtiter plate was incubated for 3 hours at 30°C (B. cereus) or 37°C for other strains. After three hours, 100 µL of PBS solution with dissolved resazurin and MHB was added to each well. The amount of resazurin and MHB that was added is bacterial strain dependent, with the final resazurin (µM)/ MHB (wt/vol) concentrations being 100 µM/ 0.2% (wt/vol) for E. coli, 12.5 µM/ 0.05% (wt/vol) for B. cereus, 25 µM/ 2.2% (wt/vol) for P. aerugoinsa, and 50 µM/ 2.2% (wt/vol) for S. aureus. The metabolic conversion of resazurin to resorufin is bacterial strain dependent and requires concentrations optimized for each species to achieve a high-throughput assessment. Following addition of resazurin/MHB buffer, the plate was immediately placed in either a SpectraMax Gemini EM plate-reading fluorimeter (E. coli and B. cereus) or a TeCan Safire 2 fluorimeter (S. aureus and P. aeruginosa) for incubation overnight at either 30°C (B. cereus) or 37°C (other strains) while monitoring fluorescence for each well.
(§4) Fluorescence data was collected from each well during the monitoring period using equations compiled by microplate data software (SoftMax Pro 4.5 or Magellen 6). Onset time of half maximal fluorescence (T0.5) was used for quantifying bacterial concentrations. Standard curves were generated in preliminary experiments using serially diluted bacterial suspensions (~10^6 CFU/mL- 10^3 CFU/mL) without CAMPs. […] Correlating bacterial CFU values for wells containing peptide with control wells containing no CAMPs it is possible to determine bacterial survival for wells containing CAMPs.

[2] = test system: Escherichia coli (ATCC 25922)
Description: as §1, §2, §3, §4

[3] = test system: Pseudomonas aeruginosa (ATCC 9027)
Description: as §1, §2, §3, §4

[4] = test system: Staphylococcus aureus (ATCC 25923)
Description: as §1, §2, §3, §4

Row | Compound | EC50 ([1]; read-out: B. cereus EC50, B. cereus ATCC 11778, 2 × 10^6 CFU/mL stock mixed 1:1 with peptide in 10 mM sodium phosphate pH 7.4, 3 h at 30°C, resazurin fluorescence read-out (T0.5), triplicate, variable-slope sigmoidal fit) [µM] | EC50 ([2]; read-out: E. coli EC50, E. coli ATCC 25922, 2 × 10^6 CFU/mL stock mixed 1:1 with peptide in 10 mM sodium phosphate pH 7.4, 3 h at 37°C, resazurin fluorescence read-out (T0.5), triplicate, variable-slope sigmoidal fit) [µM] | EC50 ([3]; read-out: P. aeruginosa EC50, P. aeruginosa ATCC 9027, 2 × 10^6 CFU/mL stock mixed 1:1 with peptide in 10 mM sodium phosphate pH 7.4, 3 h at 37°C, resazurin fluorescence read-out (T0.5), triplicate, variable-slope sigmoidal fit) [µM] | EC50 ([4]; read-out: S. aureus EC50, S. aureus ATCC 25923, 2 × 10^6 CFU/mL stock mixed 1:1 with peptide in 10 mM sodium phosphate pH 7.4, 3 h at 37°C, resazurin fluorescence read-out (T0.5), triplicate, variable-slope sigmoidal fit) [µM] | EC50 ([1]; ATCC 11778, 3 h, pH 7.4) [µM] | EC50 ([2]; ATCC 25922, 3 h, pH 7.4) [µM] | EC50 ([3]; ATCC 9027, 3 h, pH 7.4) [µM] | EC50 ([4]; ATCC 25923, 3 h, pH 7.4) [µM]
1 | CC[C@H](C)[C@H](NC(=O)[C@H](CCCCN)NC(=O)[C@H](CCC(=O)O)NC(=O)[C@H](CCCCN)NC(=O)[C@H](CO)NC(=O)[C@H](CCCCN)NC(=O)[C@H](CCCNC(=N)N)NC(=O)[C@H](Cc1ccccc1)NC(=O)[C@H](Cc1ccccc1)NC(=O)[C@H](CC(=O)O)NC(=O)CNC(=O)[C@H](CC(C)C)NC(=O)[C@@H](N)CC(C)C)C(=O)NCC(=O)N[C@@H](CCCCN)C(=O)N[C@@H](CCC(=O)O)C(=O)N[C@@H](Cc1ccccc1)C(=O)N[C@@H](CCCCN)C(=O)N[C@@H](CCCNC(=N)N)C(=O)N[C@H](C(=O)N[C@H](C(=O)N[C@@H](CCC(N)=O)C(=O)N[C@@H](CCCNC(=N)N)C(=O)N[C@H](C(=O)N[C@@H](CCCCN)C(=O)N[C@@H](CC(=O)O)C(=O)N[C@@H](Cc1ccccc1)C(=O)N[C@@H](CC(C)C)C(=O)N[C@@H](CCCNC(=N)N)C(=O)N[C@@H](CC(N)=O)C(=O)N[C@@H](CC(C)C)C(=O)N[C@H](C(=O)N1CCC[C@H]1C(=O)N[C@@H](CCCNC(=N)N)C(=O)N[C@H](C(=O)N[C@@H](CCC(=O)O)C(=O)N[C@@H](CO)C(=O)O)[C@@H](C)O)C(C)C)[C@@H](C)CC)C(C)C)[C@@H](C)CC [LL-37, reference compound] | 0.0287 | 0.00821 | 0.525 | 0.552 | – | – | – | –
2 | YSLKKTSMKIIPFTRL [FGG398–413] | – | – | – | – | 9.35 | 0.332 | 7.02 | 2.84
3 | KTRNWFSEHFKKVKEKLKDTFA [APOC1_67–88] | – | – | – | – | 0.21 | 0.151 | 0.948 | 7.08
4 | KKTSMKIIPFTRL [FGG401–413] | – | – | – | – | 18.7 | 0.245 | 11.1 | 31.8
5 | VERIPLVRFKSIKKQLHERGDL [NOTS17–38] | – | – | – | – | – | – | – | 198
6 | FSTKTRNWFSEHFKKVKEKLKDTFA [APOC1_64–88] | – | – | – | – | 0.245 | 0.192 | 1.41 | 9.66
7 | PPGASPRKKPRKQ [ASAP130LP] | – | – | – | – | – | – | – | 101
